Data taken from US20020006933A1 (TAP Holdings, Inc., priority 2000, published 2002).

Experiments:
humans = test: Clinical experience with sublingual apomorphine tablets in humans (efficacy, side effects)
clinical = conditions: human, in vivo; for Cmax: Mean
[1] = humans, 2 to 4 mg sublingual tablets, clinical experience

AUC(0-inf) (clinical; sc, 1 mg): 3.39 ng·h/mL
Tmax (clinical; sc, 1 mg): 20.4 min
Cmax (clinical; sc, 1 mg): 3.22 ng/mL
AUC(0-inf) (clinical; male, 2 mg): 1.23 ng·h/mL
Tmax (clinical; male, 2 mg): 44.4 min
cmax, Mean (clinical; male, 2 mg): 0.70 ng/mL
Cmax (clinical; male, 2 mg): ~0.7 ng/mL
AUC(0-inf) (clinical; male, 4 mg): 2.37 ng·h/mL
Tmax (clinical; male, 4 mg): 43.2 min
cmax, Mean (clinical; male, 4 mg): 1.25 ng/mL
Cmax (clinical; male, 4 mg): ~1.25 ng/mL
AUC(0-inf) (clinical; male, 5 mg): 2.92 ng·h/mL
Tmax (clinical; male, 5 mg): 40.8 min
cmax, Mean (clinical; male, 5 mg): 1.70 ng/mL
Cmax (clinical; male, 5 mg): ~1.7 ng/mL
AUC(0-inf) (clinical; male, 6 mg): 3.6 ng·h/mL
Tmax (clinical; male, 6 mg): 39.6 min
cmax, Mean (clinical; male, 6 mg): 1.91 ng/mL
Cmax (clinical; male, 6 mg): ~1.91 ng/mL
Structure (SMILES): CN1CCc2cccc3c2[C@H]1Cc1ccc(O)c(O)c1-3 [Apomorphine, (R)-5,6,6a,7-tetrahydro-6-methyl-4H-dibenzo-[de,g]quinoline-10,11-diol]
incidence of emesis (humans; [1]): 2%
incidence of nausea (humans; [1]): about 13%
tolerability in humans (humans; up to 8 mg of apomorphine tablets): well tolerated
side-effects in humans (humans; up to a 6 mg dose via sublingual tablet): minimal side-effects
efficacy in humans (humans; up to a 6 mg dose via sublingual tablet, sexual dysfunction): good efficacy
